According to paper PMC5825103 (PLoS ONE, 2018):

Columns and labels:
MR = tested on: MR; set-up: method as in PMID 24464876; conditions: eplerenone vs spironolactone; cited from earlier work
PR-LBD = target: T1, PR-LBD (Homo sapiens, UniProt P06401); assay: filtration radioligand binding (Eurofins Cerep); conditions: competition binding; ± SD
T1 construct: PR-LBD (catalogue number 2341) were performed by Eurofins Cerep SA, France; purchased Eurofins Cerep SA, France 2341
T1 sequence (P06401 679-913 limits assumed): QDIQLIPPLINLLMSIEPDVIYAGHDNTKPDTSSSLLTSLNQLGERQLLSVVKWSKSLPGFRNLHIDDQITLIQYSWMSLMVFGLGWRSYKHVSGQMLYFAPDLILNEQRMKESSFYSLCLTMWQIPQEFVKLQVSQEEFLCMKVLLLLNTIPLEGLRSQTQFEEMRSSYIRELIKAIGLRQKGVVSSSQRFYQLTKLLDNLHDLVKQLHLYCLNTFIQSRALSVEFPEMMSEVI
Protocol: Filtration based radioligand binding assays for human GR-LBD (catalogue number 0469), AR-LBD (catalogue number 0933) and PR-LBD (catalogue number 2341) were performed by Eurofins Cerep SA, France.

[1] = tested on: male Sprague Dawley rats on low salt diet; assay: acute urinary electrolyte excretion in salt deprived rats; assay type: in vivo, rat; conditions: 100 mg kg^-1 AZD9977 co-administered with 10 or 30 mg kg^-1 eplerenone
Protocol: Experimental procedures to assess electrolytes effects in vivo were approved by the local ethics review committee on animal experiments in the Gothenburg region (EA 141-2010). […] Animals had environmental enrichment such as nest pads, nesting box, running ladder and aspen chew sticks. Rats were fed a low salt diet ([…] with 0.02% NaCl, […], Sweden) for 72h prior to dosing to increase endogenous aldosterone levels. […] Immediately following dosing, rats were placed in metabolic cages with free access to drinking water but no food. Urine was collected for 8 hours to determine total electrolyte (Na^+ and K^+) content as well as total urinary volume. Urine was collected at room temperature with no additives. Urine was analyzed for Na^+ and K^+ content on a Radiometer ABL 700 blood gas analyzer (Radiometer, Copenhagen, Denmark).

Structure (SMILES) | reduced receptor potency in vitro compared to spironolactone (MR) | Ki (PR-LBD) [µM] | Na^+ excretion caused by eplerenone [1]
COC(=O)[C@@H]1CC2=CC(=O)CC[C@]2(C)[C@@]23O[C@@H]2C[C@@]2(C)[C@@H](CC[C@@]24CCC(=O)O4)[C@H]13 [eplerenone] | 10–20 fold |  | 
CNC(=O)C[C@H]1COc2cc(F)ccc2N1C(=O)c1ccc2c(c1)NC(=O)CO2 [AZD9977, (S)-2-(7-Fluoro-4-(3-oxo-3,4-dihydro-2H-benzo[b][1, 4]oxazine-6-carbonyl)-3,4-dihydro-2H-benzo[b][1, 4]oxazin-3-yl)-N-methylacetamide] |  | 25.1 | attenuated the Na^+ excretion caused by eplerenone
